This test has as its target Calcium-dependent protein kinase 1 (Plasmodium falciparum (isolate 3D7)) (UniProt P62344). Kind of test: PfCDPK1 kinase inhibitors, biochemical, TCAMS library (AID 1159585).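 Also: inhibitors leave more ATP so luminescence rises with inhibition.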 As to conditions: recombinant PfCDPK1, Kinase-Glo ATP depletion luminescence. (In general: Kinase-Glo measures the ATP left after a reaction by luminescence.)

Our source for the IC50 values is PubChem BioAssay AID1159585 (Gregory J. Crowther, 2016).

pIC50: −log10 of the molar value.

Calcium-dependent protein kinase 1 (Plasmodium falciparum (isolate 3D7)), sequence (P62344 whole entry, looked up): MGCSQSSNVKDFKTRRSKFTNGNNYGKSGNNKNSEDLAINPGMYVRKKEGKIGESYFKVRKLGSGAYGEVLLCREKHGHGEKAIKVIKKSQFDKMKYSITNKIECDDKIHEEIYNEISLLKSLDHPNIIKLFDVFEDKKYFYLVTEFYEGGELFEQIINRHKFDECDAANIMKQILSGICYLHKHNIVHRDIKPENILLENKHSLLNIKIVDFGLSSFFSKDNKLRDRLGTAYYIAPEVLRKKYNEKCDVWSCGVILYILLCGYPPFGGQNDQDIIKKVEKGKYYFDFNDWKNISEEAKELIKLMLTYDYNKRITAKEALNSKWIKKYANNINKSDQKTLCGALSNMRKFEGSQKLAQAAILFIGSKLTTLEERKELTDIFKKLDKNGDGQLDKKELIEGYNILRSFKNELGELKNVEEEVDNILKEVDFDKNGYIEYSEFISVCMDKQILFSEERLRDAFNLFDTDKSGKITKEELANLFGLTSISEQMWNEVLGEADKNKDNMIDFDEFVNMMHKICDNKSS

For the molecule `c1cncc(Oc2ccc(Nc3ccnc4cc(-c5cccc(CNCCN6CCOCC6)c5)ccc34)cc2)c1`, the pIC50 – broadly, the negative decadic logarithm of the IC50, by convention in mol/L – is 6.15.

As to `COc1ccc(Nc2ncc3c(-c4cccc(NC(=O)Cc5ccc(O)cc5)c4)c[nH]c3n2)cc1OC`, the pIC50 was 7.01.

On to `Nc1ncc(-c2cn[nH]c2)cc1-c1nc2ncc(Cl)cc2[nH]1`, for which the pIC50 is 6.55.

With `CN(C)CCN(C)Cc1nc(-c2ccc3c(Nc4ccc(Oc5ccccc5)cc4)ccnc3c2)cs1`, the pIC50 was 6.04.

On to `COc1ccc(Nc2ncc(Cl)c(Nc3cccnc3C(N)=O)n2)cc1N1CCN(C)CC1`, for which the pIC50 was 6.25.

Consider `Cc1ccc(Nc2nccc(N(C)c3ccc4c(c3)nc(NC(=O)Cc3ccc(Cl)c(Cl)c3)n4C)n2)cc1S(N)(=O)=O`, for which the negative logarithm of the IC50 (pIC50) was 6.46.

Take `NS(=O)(=O)CCc1cccc(Nc2nccc(-c3c(-c4cccc(NC(=O)c5c(F)cccc5F)c4)nn4ccccc34)n2)c1`: the pIC50 is 7.70.

`CC(C)(C)CNCC(C)(C)c1nc(-c2ccc(Cl)c(O)c2)c(-c2ccncc2)[nH]1`: the pIC50 is 6.80.

Take `CC(=O)Nc1cccc(Nc2nccc(-c3c(-c4cccc(NC(=O)c5c(F)cccc5F)c4)nn4ncccc34)n2)c1`: the negative-log IC50 (pIC50) was 7.82.

For `CCn1c(-c2nonc2N)nc2c(-c3ccccc3)ncc(OCCCCNCCc3ncc[nH]3)c21`, the pIC50 was 7.03.

Turning to `O=C(NCCN1CCCCC1)c1cccc(Nc2nccc(Nc3ccc(Oc4ccccc4)cc3)n2)c1`, the pIC50 is 6.60.

Consider `CN1CCN(c2ccc(Nc3ncc(C#N)c(Nc4ccccc4C(N)=O)n3)cc2)CC1`, for which the negative-log IC50 (pIC50) is 7.92.

As for `Cc1nc(-c2cccc(Nc3ccnc4cc(-c5nccs5)ccc34)c2)no1`, the pIC50 is 6.72.

On to `O=C(Nc1cccc(-c2nn3ncccc3c2-c2ccnc(Nc3ccccc3)n2)c1)c1c(F)cccc1F`, for which the pIC50 was 7.41.

Regarding `Oc1cc(-c2nc(-c3ccccc3)[nH]c2-c2ccncc2)ccc1Cl`, the negative-log IC50 (pIC50) was 6.01.

As to `NS(=O)(=O)c1ccc(Nc2nccc(-c3c(-c4cccc(NC(=O)c5c(F)cccc5F)c4)nn4ccccc34)n2)cc1`, the pIC50 is 7.32.

In the case of `COc1ccc(-c2cnn3ccc(Nc4cc(OC)c(OC)c(OC)c4)nc23)cc1OC`, the negative logarithm of the IC50 (pIC50) is 6.80.

With `CNC(=O)c1ccccc1Nc1nc(Nc2ccc(N3CCN(C)CC3)nc2)ncc1C`, the pIC50 was 7.35.

As for `Fc1cc(Cl)ccc1Nc1ccnc2cc(-c3ccc(CNCCN4CCOCC4)o3)ccc12`, the negative-log IC50 (pIC50) is 6.42.

Regarding `CC(C)(CNC(=O)C1CCN(CCOCc2ccccc2)CC1)c1nc(-c2ccc(Cl)c(O)c2)c(-c2ccncc2)[nH]1`, the pIC50 was 6.13.

Take `Oc1cccc(Nc2ccnc3cc(-c4nccs4)ccc23)c1`: the pIC50 was 6.00.

In the case of `CS(=O)(=O)Cc1ccc(Nc2nccc(-c3c(-c4cccc(NC(=O)c5c(F)cccc5F)c4)nn4ccccc34)n2)cc1`, the pIC50 is 7.70.

Regarding `c1ccc(Oc2ccc(Nc3ccnc(Nc4ccc(OCCN5CCCCC5)cc4)n3)cc2)cc1`, the pIC50 was 6.15.

For `CNCC(C)(C)c1nc(-c2ccc(Cl)c(O)c2)c(-c2ccncc2)[nH]1`, the pIC50 is 7.31.

As for `CS(=O)(=O)Cc1ccc(Nc2nccc(-c3c(-c4cccc(NC(=O)C5CCCCC5)c4)nn4ncccc34)n2)cc1`, the negative logarithm of the IC50 (pIC50) was 7.43.

On to `CN1CCN(CCCNCc2cccc(Nc3nccc(Nc4ccc(Oc5ccccc5)cc4)n3)c2)CC1`, for which the negative logarithm of the IC50 (pIC50) is 6.58.

Take `CN(C)Cc1ccc(-c2ccc3c(Nc4ccc(Oc5ccccn5)cc4)ccnc3c2)o1`: the pIC50 is 6.29.

With `NC[C@H](CC1CCCCC1)NC(=O)c1ccc(-c2ccnc3[nH]ccc23)s1`, the pIC50 was 6.31.

Turning to `CC(C)(CNCc1ccccc1)c1nc(-c2ccc(Cl)c(O)c2)c(-c2ccncc2)[nH]1`, the pIC50 is 6.72.

As for `NS(=O)(=O)c1cccc(Nc2nccc(-c3c(-c4cccc(NC(=O)c5c(F)cccc5F)c4)nn4ccccc34)n2)c1`, the pIC50 was 7.70.

On to `Oc1cccc(Nc2ccnc3cc(-c4ccncc4)ccc23)c1`, for which the negative-log IC50 (pIC50) is 6.05.

`CCNC(=O)Nc1ccc(-c2cnc(N)c(-c3nc4ccc(OC)cc4[nH]3)c2)cc1`: the negative logarithm of the IC50 (pIC50) is 6.84.

Take `COc1cc(-c2nc(C(C)(C)CN)[nH]c2-c2ccncc2)ccc1Br`: the pIC50 was 6.80.

For the molecule `CC(c1cccc(Nc2nccc(-c3c(-c4cccc(NC(=O)c5c(F)cccc5F)c4)nn4ncccc34)n2)c1)S(C)(=O)=O` (stereo unspecified), the negative-log IC50 (pIC50) was 7.02.

Consider `CCn1c(-c2nonc2N)nc2c(-c3cccc(NC(=O)Nc4ccc5c(c4)CCC5)c3)ncc(OCCCN)c21`, for which the negative-log IC50 (pIC50) is 7.07.

On to `Oc1cccc(-c2cnc3ccc(NCc4ccc(F)cc4)nn23)c1`, for which the pIC50 is 6.94.

Consider `CCn1c(-c2nonc2N)nc2c(-c3ccc(CO)o3)ncc(OCCCN)c21`, for which the pIC50 is 7.29.

Consider `CS(=O)(=O)CCNCc1cccc(-c2ccc3c(Nc4ccc(Oc5cccnc5)cc4)ccnc3c2)c1`, for which the negative logarithm of the IC50 (pIC50) is 6.02.

For the molecule `CC(C)(CNC(=O)C1CCN(Cc2ccoc2)CC1)c1nc(-c2ccc(Cl)c(O)c2)c(-c2ccncc2)[nH]1`, the negative logarithm of the IC50 (pIC50) was 6.37.

As for `CN(C)Cc1cccc(-c2cc3c(-c4cnn(C)c4)c(Cl)cnc3[nH]2)c1`, the pIC50 is 6.40.

Take `O=C(NCC(c1ccc(C(F)(F)F)cc1)N1CCCC1)c1cc(-c2ccncc2)c(-c2cccc(O)c2)o1` (stereo unspecified): the pIC50 is 6.55.

`COCCNCc1cccc(-c2ccc3c(Nc4ccc(Oc5cccnc5)cc4)ccnc3c2)c1`: the negative logarithm of the IC50 (pIC50) was 6.04.

As for `CCn1c(-c2nonc2N)nc2c(-c3ccccc3)ncc(OCCCNCCCN3CCOCC3)c21`, the pIC50 is 7.38.

On to `OC1CCC(Nc2ccc3ncc(-c4ccc(Cl)cc4)n3n2)CC1` (stereo unspecified), for which the pIC50 is 6.30.

With `CCn1c(-c2nonc2N)nc2c(-c3cccc(NC(=O)Nc4cccc(Cl)c4)c3)ncc(OCCCN)c21`, the pIC50 was 6.42.

Regarding `CN1CCN(Cc2cccc(Nc3nccc(Nc4ccc(Oc5ccccc5)cc4)n3)c2)CC1`, the pIC50 is 6.10.

For `CN(C)CCOc1ccc(-c2cc(-c3ccnc(N)n3)c(-c3ccc(Cl)c(O)c3)o2)cc1`, the pIC50 was 6.16.

As to `Cn1c(Nc2cc(C(C)(C)C)on2)nc2cc(Nc3ccnc(Nc4cccc(CS(C)(=O)=O)c4)n3)ccc21`, the pIC50 is 6.94.

For `CCN(CC)CCCOc1ccc(Nc2nccc(-c3c(-c4cccc(NC(=O)c5c(F)cccc5F)c4)nn4ccccc34)n2)cc1F`, the pIC50 was 6.37.

As for `CN(C)CCNCc1cccc(-c2ccc3c(Nc4ccc(Oc5ccccn5)cc4)ccnc3c2)c1`, the pIC50 was 6.07.

Regarding `CC(C)(NCc1ncc[nH]1)c1nc(-c2ccc(Cl)c(O)c2)c(-c2ccncc2)[nH]1`, the negative logarithm of the IC50 (pIC50) was 6.84.

Take `CCn1c(-c2nonc2N)nc2c(-c3cccc(Cl)c3)ncc(OCCCNCCc3cnc[nH]3)c21`: the pIC50 is 6.86.

In the case of `CCn1c(-c2nonc2N)nc2c(-c3cccc(NC(=O)Nc4ccccc4OC)c3)ncc(OCCCN)c21`, the negative-log IC50 (pIC50) was 7.49.

`CN(C)CCN(C)Cc1ccc(-c2ccc3c(Nc4ccc(Cl)cc4F)ccnc3c2)o1`: the pIC50 was 6.22.

Take `CC(C)(CNCc1ccc(Cl)c(Cl)c1)c1nc(-c2ccc(Cl)c(O)c2)c(-c2ccncc2)[nH]1`: the pIC50 is 6.27.

Consider `COc1ccc(C(=O)NCC(C)(C)c2nc(-c3ccc(Cl)c(O)c3)c(-c3ccncc3)[nH]2)cc1OCCN(C(C)C)C(C)C`, for which the negative logarithm of the IC50 (pIC50) is 6.41.

Take `COc1ccc(-c2cnc3ccc(NCCCO)nn23)cc1OC`: the pIC50 is 6.44.

Take `CCn1c(-c2nonc2N)nc2c(-c3cccc(Cl)c3)ncc(OCCCNCc3cnc(C)nc3N)c21`: the negative logarithm of the IC50 (pIC50) is 6.57.

As for `NCCCOc1cnc(-c2ccccc2)c2nc(-c3nonc3N)n(CCc3ccccc3)c12`, the pIC50 is 7.33.

As for `Nc1ncnc2occ(-c3ccc(NC(=O)Nc4cc(C(F)(F)F)ccc4F)cc3)c12`, the pIC50 is 6.78.

For the molecule `CN(C)Cc1ccc(-c2ccc3c(Nc4ccc(Cl)cc4F)ccnc3c2)o1`, the pIC50 is 6.73.

For `CS(=O)(=O)c1cccc(-c2cnc3[nH]cc(-c4cccc(CCN)c4)c3c2)c1`, the pIC50 was 7.36.

With `NCCNC(=O)c1ccc(-c2cnc3[nH]cc(-c4ccc(C(N)=O)cc4)c3c2)cc1`, the negative logarithm of the IC50 (pIC50) was 7.62.

With `CN(C)CCNCc1ccc(-c2ccc3c(Nc4ccc(Cl)cc4F)ccnc3c2)o1`, the negative-log IC50 (pIC50) is 6.43.

Regarding `CC(C)(CNC(=O)[C@H]1CCCCN1)c1nc(-c2ccc(Cl)c(O)c2)c(-c2ccncc2)[nH]1`, the negative logarithm of the IC50 (pIC50) is 6.79.

Consider `O=S1(=O)NCc2ccc(Nc3nccc(Nc4ccc5c(cnn5Cc5ccccc5)c4)n3)cc21`, for which the pIC50 is 6.96.

For the molecule `CNC(=O)c1ccccc1Nc1nc(Nc2ccc(N3CCOCC3)cc2)ncc1Cl`, the pIC50 was 6.84.

Take `CCn1c(-c2nonc2N)nc2c(-c3cccc(NC(=O)Nc4cccc(C#N)c4)c3)ncc(OCCCN)c21`: the pIC50 was 6.74.

Take `Cc1cc(F)ccc1-c1nc(Nc2ccncc2)c2ccn(C)c2n1`: the negative-log IC50 (pIC50) is 7.40.

With `CC(C)(CNCCOc1ccc(Cl)cc1)c1nc(-c2ccc(Cl)c(O)c2)c(-c2ccnc(N)n2)[nH]1`, the pIC50 was 6.12.

Consider `CCn1c(-c2nonc2N)nc2c(-c3cccc(NC(=O)Nc4ccc(C(F)(F)F)cc4)c3)ncc(OCCCN)c21`, for which the pIC50 is 6.02.

Take `O=c1[nH]ccc2nc(N[C@@H]3CCCNC3)nc(Nc3ccc(S(=O)(=O)N4CCOCC4)cc3)c12`: the negative-log IC50 (pIC50) was 6.84.

Consider `O=c1[nH]ccc2nc(N[C@@H]3CCNC3)nc(Nc3ccc4c(c3)S(=O)(=O)CC4)c12`, for which the pIC50 was 6.63.

As for `O=C(Nc1c(F)cccc1F)c1cccc(-c2nn3ccccc3c2-c2ccnc(Nc3cccc(-c4cnco4)c3)n2)c1`, the negative-log IC50 (pIC50) is 7.40.

On to `CC(C)(CNC(=O)C1CCN(CCOc2ccc(F)c(F)c2)CC1)c1nc(-c2ccc(Cl)c(O)c2)c(-c2ccncc2)[nH]1`, for which the pIC50 is 6.18.

As for `COc1cc(Nc2nccc(-c3c(-c4cccc(NC(=O)c5c(F)cccc5F)c4)nn4ccccc34)n2)cc(OC)c1OC`, the pIC50 is 7.22.

Turning to `NS(=O)(=O)c1cccc(Nc2nc(N[C@@H]3CCNC3)nc3cc[nH]c(=O)c23)c1`, the pIC50 is 7.08.

Take `CC(C)(CNCc1ccc(Cl)cc1)c1nc(-c2ccc(Cl)c(O)c2)c(-c2ccncc2)[nH]1`: the pIC50 is 6.59.

Turning to `O=C(Nc1cccc(-c2nn3ccccc3c2-c2ccnc(Nc3ccc(C(=O)N4CCOCC4)cc3)n2)c1)c1c(F)cccc1F`, the pIC50 is 7.04.

Regarding `CCn1c(-c2nonc2N)nc2c(-c3cccc(NC(=O)NC45CC6CC(CC(C6)C4)C5)c3)ncc(OCCCN)c21`, the pIC50 was 7.08.

As to `O=C(NCCN1CCCC1)c1cccc(Nc2nccc(Nc3ccc(Oc4ccccc4)cc3)n2)c1`, the negative-log IC50 (pIC50) is 6.67.
